The record followed here is PMC11822212, “High-throughput screening identifies Aurora kinase B as a critical therapeutic target for Merkel cell carcinoma” (Nature Communications, 2025).

Assay [1] concerns CRL-7250 cells. The experiment in a line: qHTS cell viability (CellTiter-Glo, 72 h; primary screen), control cell line. The class given is cell-based. The conditions noted are these: NPC library. On the technique in general: qHTS replaces the single test concentration by a dilution series.
In assay [2] the test system is MCC26 cells (VN-MCC). Description: qHTS cell viability (CellTiter-Glo, 72 h; primary and follow-up small molecule screen). The class given is cell-based, human. The following applies: NPC library.
Assay [3] relates to HEK293T cells. Description: qHTS cell viability (CellTiter-Glo, 72 h; primary screen), control cell line. The following applies: NPC library. In kind it is cell-based, human.
In assay [4] the test system is MCC13 cells (VN-MCC). Description: qHTS cell viability (CellTiter-Glo, 72 h; primary and follow-up small molecule screen). The conditions noted are these: NPC library. The class given is cell-based, human.
In assay [5] the test system is VN-MCC cell lines (MCC13, MCC26, UISO). The experiment in a line: qHTS cell viability, VN-MCC cell lines as a group (mean AUC, VN.MCC.avg). In kind it is cell-based, human. The conditions noted are these: NPC library; for VN-MCC_Avg_AUC: mean AUC of VN-MCC cell lines.
In assay [6] the test system is WAGA cells (VP-MCC). Description: qHTS cell viability (CellTiter-Glo, 72 h; primary and follow-up small molecule screen). The class given is cell-based, human. The following applies: NPC library.
In assay [7] the test system is VP-MCC cell lines (WAGA, MKL-1, MKL-2). The experiment in a line: qHTS cell viability, VP-MCC cell lines as a group (mean AUC, VP.MCC.avg). The class given is cell-based, human. The conditions noted are these: NPC library; for VP-MCC_Avg_AUC: mean AUC of VP-MCC cell lines.
The subject of assay [8] is MCC cell lines (WAGA, MKL-1, MKL-2, MCC13, MCC26, UISO). The experiment in a line: qHTS cell viability, all six MCC cell lines as a group (mean AUC, MCC.avg). In kind it is cell-based, human. The following applies: NPC library; mean AUC of six MCC cell lines.
For assay [9], the system named is six MCC cell lines and four control cell lines. The experiment in a line: qHTS cell viability, all 10 cell lines screened. In kind it is cell-based. The conditions noted are these: NPC library.
Assay [10] relates to UISO cells (VN-MCC). The experiment in a line: qHTS cell viability (CellTiter-Glo, 72 h; primary and follow-up small molecule screen). In kind it is cell-based, human. The following applies: NPC library.
Assay [11] has as its system HACAT cells. The experiment in a line: qHTS cell viability (CellTiter-Glo, 72 h; primary screen), control cell line. The class given is cell-based, human. The following applies: NPC library.
For assay [12], the system named is MKL-2 cells (VP-MCC). The experiment in a line: qHTS cell viability (CellTiter-Glo, 72 h; primary and follow-up small molecule screen). In kind it is cell-based, human. The following applies: NPC library.
In assay [13] the test system is MKL-1 cells (VP-MCC). The assay is described as above. In kind it is cell-based, human. The conditions noted are these: NPC library.
Assay [14] has as its system NIH-3T3 cells. The experiment in a line: qHTS cell viability (CellTiter-Glo, 72 h; primary screen), control cell line. The conditions noted are these: NPC library. The class given is cell-based, mouse.
Assay [15] deals with control cell lines (HACAT, HEK293T, CRL-7250, NIH-3T3). Description: qHTS cell viability, control cell lines as a group (mean AUC, Control.avg). In kind it is cell-based. The following applies: NPC library; mean AUC of control cell lines.
Setting [16] is: 8-point DRC, area under dose-response curve.

Turning to `CCCCC1C(=O)N(c2ccccc2)N(c2ccc(O)cc2)C1=O` (stereo not shown) [Oxyphenbutazone], the CRL7250_AUC in assay [1] (qHTS dose-response AUC, CRL7250 control) came to 449.026. For the same compound, the MCC26_AUC in assay [2] (qHTS dose-response AUC, MCC26) amounted to 450.163. In [3] (qHTS dose-response AUC, HEK293T control), the HEK293T_AUC turned out to be 361.816. This compound had an MCC13_AUC in assay [4] (qHTS dose-response AUC, MCC13) of 405.464. In assay [5], the VN-MCC_Avg_AUC worked out at 419.723. For the same compound, the Control-VN-MCC in assay [5] (therapeutic window: Control avg AUC minus VN-MCC avg AUC) is on record as -1.619. Also, in assay [6] (qHTS dose-response AUC, WAGA), the WAGA_AUC was 370.924. The VP-MCC_Avg_AUC in assay [7] amounted to 343.137. The compound also displayed a Control-VP-MCC in assay [7] (therapeutic window: Control avg AUC minus VP-MCC avg AUC) of 74.9673. This compound also showed an MCC_Avg_AUC in [8] of 381.43. The compound also yielded a Control-MCC in assay [9] (therapeutic window: Control avg AUC minus MCC avg AUC) of 36.6743. For the same compound, the UISO_AUC in assay [10] (qHTS dose-response AUC, UISO) came to 403.541. In assay [11] (qHTS dose-response AUC, HACAT control), this compound came in with an HACAT_AUC of 428.222. Further, the MKL2_AUC in [12] (qHTS dose-response AUC, MKL2) is given as 317.862. For the same compound, the MKL1_AUC in assay [13] (qHTS dose-response AUC, MKL1) was determined as 340.624. This compound registered an NIH3T3_AUC in [14] (qHTS dose-response AUC, NIH3T3 control) of 433.353. Moreover, the Control_Avg_AUC in assay [15] was determined as 418.104.
As for `O=S1(=O)OC(c2ccc(O)cc2)(c2ccc(O)cc2)c2ccccc21` [Phenol red], the CRL7250_AUC in [1] (8-point DRC, control cell line) is reported as 462.075. In assay [2] (setting [16]), this compound had an MCC26_AUC of 404.069. The same compound displayed an HEK293T_AUC in assay [3] (8-point DRC, control cell line) of 472.146. This compound also showed an MCC13_AUC in assay [4] (setting [16]) of 422.151. Also, the Control-VN-MCC in assay [5] (Control AUC minus VN-MCC AUC (therapeutic window)) was 61.2549. For the same compound, in assay [5], the VN-MCC_Avg_AUC is reported as 416.577. The compound also showed a WAGA_AUC in assay [6] (setting [16]) of 458.996. In addition, the Control-VP-MCC in assay [7] (Control AUC minus VP-MCC AUC (therapeutic window)) was 30.8871. Also, in assay [7], the VP-MCC_Avg_AUC worked out at 446.945. In assay [8], this compound gave an MCC_Avg_AUC of 431.761. In assay [9] (Control AUC minus MCC AUC (therapeutic window)), this compound registered a Control-MCC of 46.071. Besides, the UISO_AUC in [10] (setting [16]) came to 423.512. In assay [11] (8-point DRC, control cell line), this compound showed an HACAT_AUC of 492.366. Moreover, the MKL2_AUC in [12] (setting [16]) is listed as 451.959. In assay [13] (setting [16]), this compound returned an MKL1_AUC of 429.88. In [14] (8-point DRC, control cell line), this compound yielded an NIH3T3_AUC of 484.742. The Control_Avg_AUC in assay [15] came out at 477.832.
